For data set [1], the system named is cold allodynia in rats. The data set can be described thus: Cold allodynia in vivo assay (chronic constriction injury), acute studies. On the set-up: species or system rat. To be noted: cold allodynia, subcutaneous, acute; for ED50: Rattus norvegicus, sc; for potency (ED50) comparison of (R)-isomers: in words. The method, then: (§1) This assay determines the effectiveness of compounds in relieving one of the symptoms of neuropathic pain produced by unilateral mononeuropathy, namely cold allodynia. Unilateral mononeuropathy was produced in rats using the Chronic Constriction Injury model performed essentially as described by Bennet and Xie, Pain, (1988) 33:87-107. Briefly, the rats were anesthetized with an intraperitoneal dose of pentobarbital sodium (65 mg/kg) with additional doses of anesthetic given as needed. The lateral aspect of each rat's hind limb was shaved and scrubbed with Novasan. Using aseptic technique, an incision was made on the lateral aspect of the hind limb at the mid-thigh level. The biceps femoris was bluntly dissected to expose the sciatic nerve. On the right hind limb of each rat, four loosely tied ligatures were made around the sciatic nerve approximately 1-2 millimeters apart. On the left side of each rat, an identical dissection was performed except that the sciatic nerve was not ligated. The muscle was closed with a continuous suture pattern, and the skin was closed with wound clips. Each rat was placed individually into a plexiglass chamber with a metal plate 6 cm from the bottom. This chamber was filled with ice water to a depth of 2.5 cm above the metal plate, with the temperature of the bath maintained at 0° C. throughout the experiment. A timer was started, and the rat's response latency was measured to the nearest tenth of a second. A "response" was defined as a rapid withdrawal of the right ligated hindpaw completely out of the water while the animal was stationary and not pivoting. An exaggerated limp while the animal was walking was not scored as a response. Maximum immersion time was 20 seconds with a 20 minute interval between trials. The screening criteria were 1) the average of two trials was less than or equal to 13 seconds, and 2) there was consistency across the two trial scores. Animals were screened for hypersensitivity to cold on post-surgery days 4 through 10, and selected for inclusion in dose-response studies based on the criteria described above. The pre-dose screening values were used as the animal's baseline cold allodynia scores. For acute studies, the animals received either subcutaneous or oral injections and were tested for cold allodynia at 1, 3, and sometimes 5 hours post-dose. The selection of doses was similar to that of Example 12C.

The nature of data set [2]: Adverse effects / gross behavior on dosing. In kind it is in vivo, rat. To be noted: for doses with adverse side effects / behavioral problems / adverse side effects observed: cold allodynia acute study; for adverse side effects observed: doses higher than 60 mg/kg. On the procedure: The doses for the acute and chronic studies were selected on the basis of prior assessment of the acute effects on the test compounds on the gross behavior in normal rats. Briefly, the rats were weighed and grouped into cages, dosed with the test compound, and observed continuously for changes in behavior. […] Pinna and corneal reflexes were tested by using a piece of natural hair from a brush that is attached to a glass rod. The righting reflexes were tested by placing the rat flat on its back, and recording the time it takes for the animal to right itself onto all four legs. The posture and gait were assessed by placing the rat on the floor.
The selection of doses was similar to that of Example 12C.

Another data set deals with neuropathic pain models. In words: Neuropathic pain models / standard assays (summary statements). Format: in vivo. The conditions noted are these: summary statement, (S)- vs (R)-enantiomer.
In data set [3] the test system is voltage-gated sodium channels ([3H]BTX binding, rat cortex). The data set can be described thus: [3H]BTX binding assay, rat cortex membranes. The conditions noted are these: rat brain cortex membranes. The method, then: The following assays characterize the interaction of the compounds of Formula I with ligand binding sites on voltage-gated sodium channels.
Frozen tissues were obtained from Pel-Freez Biologicals (Rogers, AR). Tissues were homogenized in 10 volumes of a Tris-sucrose buffer (10 mM Tris-HCl, 250 mM sucrose, pH 7.4 at 4° C.) using 10 strokes with a glass-glass, hand-held homogenizer. The homogenates were filtered through nylon mesh and then centrifuged at 1,000×g for 15 minutes. The pellets were resuspended in a Hepes buffer (50 mM Hepes, 130 mM choline chloride, 5 mM glucose, 5.4 mM KCl, pH 7.4 at 4° C.). The resuspended pellets were centrifuged at 1,000×g for 15 minutes, resuspended in a Hepes buffer (50 mM Hepes, 130 mM choline chloride, 5 mM glucose, 5.4 mM KCl, pH 7.4 at 25° C.) and, frozen at -70° C. until used in binding assays.
Nonspecific binding was defined in the presence of 1 mM veratridine. Unless otherwise specified, PbTx (0.1 μM) and LqTx (50 μg/ml) were included in the assays. Membranes were incubated for 60 minutes at 25° C. and then filtered using GF/B glass fiber filters that had been pretreated with 0.3% PEI. Filters were rinsed with 3×1 ml of ice cold 50 mM Tris-HCl (pH 7.4 at 4° C.) and the bound radioactivity was determined by scintillation counting (Packard Top-count).

The subject of data set [4] is mechanical allodynia in rats. The data set can be described thus: Mechanical allodynia in vivo assay (spinal nerve ligation). The arrangement: species or system rat. To be noted: for analgesia against mechanical allodynia: oral administration; for ED50: Rattus norvegicus, sc. The method, then:
This assay determines the effectiveness of compounds in relieving one of the symptoms of neuropathic pain produced by spinal nerve ligation, namely mechanical allodynia. The surgical procedure was performed essentially as described by Kim and Chung, Pain, (1992) 50:355-363. Briefly, the rats were anesthetized with an intraperitoneal dose of pentobarbital sodium (65 mg/kg) with additional doses of anesthetic given as needed. Each animal was then placed in a prone position, a 3 cm lateral incision was made, and the left paraspinal muscles separated from the spinous process at the L4 -S2 level. The L6 transverse process was then removed in order to visually identify the L4 -L6 spinal nerves. The L5 and L6 spinal nerves were then individually isolated and tightly ligated with silk thread. The wound was then closed in layers by silk sutures. Seven to 28 days post-surgery, a calibrated series of eight von Frey filaments were used to assess mechanical allodynia. Animals were housed individually in plexiglass cages with a wire mesh floor. Filaments of increasing stiffness were applied perpendicular to the midplantar surface in the sciatic nerve distribution areas of the left hindpaw and were slowly depressed (4-6 seconds) until bending occurred. The filament application order and number of trials were determined by the up-down method of Dixon (Chaplan, et al., J. Neurosci. Methods, (1994) 53:55-63). Flinching and licking of the paw and paw withdrawal on the ligated side were all considered positive responses. The 50% paw withdrawal threshold (g) was then calculated and compared to control. The doses for the acute and chronic studies were selected on the basis of prior assessment of the acute effects on the test compounds on the gross behavior in normal rats. Briefly, the rats were weighed and grouped into cages, dosed with the test compound, and observed continuously for changes in behavior. […] Pinna and corneal reflexes were tested by using a piece of natural hair from a brush that is attached to a glass rod. The righting reflexes were tested by placing the rat flat on its back, and recording the time it takes for the animal to right itself onto all four legs. The posture and gait were assessed by placing the rat on the floor.

For data set [5], the system named is cold allodynia in rats. The data set can be described thus: Cold allodynia in vivo assay (chronic constriction injury), chronic studies. The arrangement: species or system rat. The conditions noted are these: oral, chronic; (R)-enantiomer 10 and 20 mg/kg, sub-threshold. The method, then:
as §1, with “chronic” for “acute”, “animals received subcutaneous or oral injections twice daily for 4 days and once on day 5. The animals were tested for allodynia on day 1 at 1, 3 and 5 hours following the 8 am dose, and at 5 hours following the 8 am dose on days 3 and 5. Two days later, the animals were tested for cold allodynia to assess whether there was a wash-out of the drug being tested. Following this screening for cold allodynia, the animals in two of the three chronic studies” for “animals”, “of the drug” for “and were tested for cold allodynia”, “a dose previously shown” for “1, 3, and sometimes 5 hours post-dose. The selection of doses was similar”, “produce significant anti-allodynic effects acutely. […]” for “that of Example 12C.”

Where [6] appears, read: subcutaneous, mechanical allodynia study.
The mark [7] stands for this setting: mechanical allodynia, subcutaneous.

Where two headings read alike, the source gives them in different places.

In general, ED50 refers to the dose at which the effect has come halfway, by size or by number of responders.

Regarding `CCN[C@@H](C)COc1c(C)cccc1C` [Formula I (S)-, (S)-[2-(2,6-dimethylphenoxy)-1-methylethyl]-ethylamine], in the data set on cold allodynia in rats [1] (1 hr, read-out: ED50 1 hr), the ED50 amounted to 12.8 mg/kg. Besides, the ED50 with cold allodynia in rats [1] (3 hr, read-out: ED50 3 hr) came out at 10 mg/kg. In the data set on cold allodynia in rats [1] (1 hr), the “Emax 1 hr” value is recorded as 100%. In addition, the “Emax 3 hr” value in the data set on cold allodynia in rats [1] (3 hr) stood at 58%. Also, the “doses with adverse side effects” value in data set [2] (oral administration, mechanical allodynia study) is listed as “greater than 60 mg/kg”. Further, in data set [2] (subcutaneous), the “doses with adverse side effects / behavioral problems” value was “higher than 60 mg/kg”; the “adverse side effects observed” value is “convulsions and immobility”. The deleterious side effects entry in the data set with neuropathic pain models is “deleterious side effects are largely confined to the (S)-enantiomer”. Also, the “potency of (R)- versus (S)-enantiomer in inhibiting [3H]BTX binding” value in data set [3] was “no difference in the potencies”. Besides, the “analgesia against mechanical allodynia” value in data set [4] was “did not produce analgesia”.
In the case of `CCCNC(C)COc1c(C)cccc1C` (racemic) [Formula IV racemate, [2-(2,6-Dimethylphenoxy)-1-methylethyl]-propylamine, reference compound], in data set [2] (setting [6]), the adverse events result is “adverse events” and the “dose at which adverse events occur” value is listed as 60 mg/kg. Also, the adverse events entry in data set [2] (subcutaneous, mechanical allodynia study, listed as Compound IV) was “convulsions and severe ataxia”. Also, the ED50 in data set [4] (setting [7]) is greater than 30 mg/kg. The “potency (ED50) comparison” value in data set [4] (mechanical allodynia, subcutaneous, in words) is given as “less potent than compound III”.
With `CN[C@H](C)COc1c(C)cccc1C` [Formula III (R)-, [2-(2,6-dimethylphenoxy)-1-methylethyl]-methylamine, reference compound], the ED50 in the data set on cold allodynia in rats [1] (1 hr, read-out: ED50 1 hr) is 26.1 mg/kg; in the data set on cold allodynia in rats [1] (3 hr, read-out: ED50 3 hr), 31.4 mg/kg. Further, the “Emax 1 hr” value in the data set with cold allodynia in rats [1] (1 hr) amounted to 76%. Also, the “Emax 3 hr” value in the data set on cold allodynia in rats [1] (3 hr) came to 74%. Also, the “potency (ED50) comparison of (R)-isomers” value in the data set on cold allodynia in rats [1] is listed as “comparable potency”.
`CCCN[C@H](C)COc1c(C)cccc1C` [Formula IV (R)-, [2-(2,6-Dimethylphenoxy)-1-methylethyl]-propylamine, reference compound]: the ED50 in the data set on cold allodynia in rats [1] (1 hr, read-out: ED50 1 hr) was found to be 28.4 mg/kg. In addition, the ED50 in the data set on cold allodynia in rats [1] (3 hr, read-out: ED50 3 hr) is 29.9 mg/kg. The “Emax 1 hr” value in the data set with cold allodynia in rats [1] (1 hr) worked out at 74%. The “Emax 3 hr” value in the data set on cold allodynia in rats [1] (3 hr) is given as 74%. The “potency (ED50) comparison of (R)-isomers” value in the data set with cold allodynia in rats [1] is “comparable potency”. Moreover, in data set [2] (subcutaneous), the “doses with adverse side effects / behavioral problems” value is “higher than 60 mg/kg”; the “adverse side effects observed” value was “splayed limbs and abnormal righting reflexes”.
Take `CNC(C)COc1c(C)cccc1C` (racemic) [Formula III racemate, [2-(2,6-dimethylphenoxy)-1-methylethyl]-methylamine]: in data set [4] (setting [7]), the ED50 was determined as 31.3 mg/kg, the EDmax is listed as 67% and the “maximal analgesic activity (Emax)” value was determined as 67%.
`Cc1cccc(C)c1OCC(C)N` (racemic) [Formula II racemate, 2-(2,6-Dimethylphenoxy)-1-methyl-ethylamine, reference compound]: the ED50 with cold allodynia in rats [1] (1 hr, read-out: ED50 1 hr) was 29.8 mg/kg; with cold allodynia in rats [1] (3 hr, read-out: ED50 3 hr), 33.6 mg/kg. For the same compound, the “Emax 1 hr” value in the data set with cold allodynia in rats [1] (1 hr) was 73%. Moreover, the “Emax 3 hr” value in the data set with cold allodynia in rats [1] (3 hr) is on record as 80%. The “anti-allodynic effect after chronic oral dosing” value in the data set on cold allodynia in rats [5] is given as “no anti-allodynic effect”. Besides, the EDmax in data set [4] (setting [7]) stood at 29%. For the same compound, the “maximal analgesic activity (Emax)” value in data set [4] (setting [7]) is reported as 29%. In addition, in data set [4], the “analgesia against mechanical allodynia” value is listed as “did not produce analgesia”.
